Measurements: patent US20090325202A1, “Methods for Developing and Assessing Therapeutic Agents” (priority 2006, published 2009)

What was measured:
[1] = tested on: Panc 265 human pancreas cancer xenograft; test: Panc 265 xenograft tumor growth; assay type: in vivo, nude mice; conditions: CCI-779 20 mg/kg days 1-5 i.p.
Description: Tumor tissue was then cut into slices (5×5×0.5−1 mm diameter) and implanted subcutaneously into nude mice. Tumor slices averaging 5×5×0.5−1 mm diameter from the patient, or 3×3×0.5−1 mm dia in serial passage were implanted subcutaneously into both flanks of nude mice. Tumors were removed under sterile conditions/laminar flow and reimplanted subcutaneously in groups of 5 mice. When the tumors on second passage of each group reached 1.5 cm, they were excised and cut into pieces of 3×3×3 mm, and transplanted on another 35-40 mice.
For the in vivo assessment experiments, treatment started when the mean tumor volumes reach approximately 200 mm.
To obtain cancer cells, each animal tumor was sampled as described above. […] At day 7 of therapy, AD/DQ slides were prepared from tumor FNAB samples to retrospectively correlate the results of in vivo and ex vivo chemosentitivty tests from the same xenograft animal.

[2] = tested on: S6 ribosomal protein; test: In vivo tumor FNAB Western blot, S6 ribosomal protein phosphorylation (Example 5); conditions: tumor samples of treated animals compared to control
Protocol: Fine needle aspiration yielded up to 200 μg of total protein as determined using the BCA protein assay (Pierce) and bovine serum albumin as a standard. Protein extracts (15 μg) were added to a loading buffer boiled and electrophoresed on a 7 or 10% (w/v) polyacrylamide gel in the presence of SDS. Molecular weights of the immunoreactive proteins were estimated based upon the relative migration with colored molecular weight protein markers (Amersham Pharmacia Biotech). After electrotransfer to Immobilon-P membranes (Millipore), membranes were blocked at room temperature using SuperBlock (Pierce,#37516) for one hour. The primary antibodies were diluted at 1:1000 in 1:10 dilution of SuperBlock solution and the membranes were incubated with primary antibodies overnight at 4° C. Next day, the membranes were washed and incubated for 1 h at room temperature with horseradish peroxidase (HRP)-conjugated secondary antibodies, rabbit IgG-HRP (SC-2004), or mouse IgG-HRP (SC-2005) from Santa Cruz Biotechnology at a final dilution of 1:3000. After washing three times with Tris-buffered saline antibody binding was visualized using enhanced chemiluminescence (SuperSignal West Pico, Pierce) and autoradiography.
The expression levels and the phosphorylation status of EGFR, ERK1/2 and S6 ribosomal protein were determined on Western blot analysis.

[3] = tested on: S6 ribosomal protein; test: Panc 265 xenograft in vivo FNAB smears, S6 ribosomal protein phosphorylation; set-up: species or system human; conditions: CCI-779 20 mg/kg days 1-5 i.p., FNAB day 7
Protocol: Animals were either untreated or treated with ZD1839: 150 mg/Kg daily or CCI-779: 20 mg/kg days 1-5 by intraperitoneal injection
To obtain cancer cells, each animal tumor was sampled as described above. After collection of tumor FNAB samples, xenograft animals were subsequently treated with ZD1839 or CCI-779 for 28 days and tumor volumes were determined as described above. At day 7 of therapy, AD/DQ slides were prepared from tumor FNAB samples to retrospectively correlate the results of in vivo and ex vivo chemosentitivty tests from the same xenograft animal.
After the treatment cells were collected, protein extracts were prepared and Western blot analysis was performed as described above. The ex vivo effect of ZD 1839 and CCI-779 on phosphorylation of ERK1/2 or S6 ribosomal proteins, respectively, was correlated with the in vivo data gathered from the FNAB smears prepared at day 7 of treatment.

[4] = tested on: primary human pancreatic cancer xenograft tumors; test: Tumor growth (RTG) in xenograft mouse models of primary human pancreatic cancer; assay type: in vivo, athymic (nu+/nu+) mice
Description: Four-week-old female athymic (nu+/nu+) mice were purchased from Harlan (Harlan Laboratories, Washington, D.C.). The research protocol was approved by the Johns Hopkins University Animal Care and Use Committee and animals were maintained in accordance to guidelines of the American Association of Laboratory Animal Care. Briefly, frozen pancreatic xenografts in first passage in mice, after being obtained from surgical specimens of patients undergoing pancreatic resection for adenocarcinoma at the Johns Hopkins Hospital were re-implanted subcutaneously in groups of 5 mice for each patient, with 2 small pieces per mouse (F2 generation). Tumors were allowed to grow to a size of 1.5 cm at which point they were harvested, divided into small ˜3×3×3 mm pieces, and transplanted to another 18-22 mice, with two tumors per mouse. Tumors from this second mouse-to-mouse passage were allowed to grow until reaching −200 mm^3, at which time mice were randomized in the following three treatment groups, with 6 mice in each group: control (vehicle), erlotinib (50 mg/kg/day i.p.), and temsirolimus (20 mg/kg days 1-5 i.p.). Mice were monitored daily for signs of toxicity and were weighed three times per week. Tumor size was evaluated three times per week by caliper measurements using the following formula: tumor volume=[length×width^2]/2 as previously reported (19). Relative tumor growth (RTG) was calculated by tumor growth of treated mice divided by tumor growth of control mice (T/C)×100. Experiments were terminated on day 28. Tumor response was defined as sensitive, when RTG was less than 50% on day 28.

CO[C@H]1C[C@@H]2CC[C@@H](C)[C@@](O)(O2)C(=O)C(=O)N2CCCC[C@H]2C(=O)O[C@H]([C@H](C)C[C@@H]2CC[C@@H](OC(=O)C(C)(CO)CO)[C@H](OC)C2)CC(=O)[C@H](C)/C=C(\C)[C@@H](O)[C@@H](OC)C(=O)[C@H](C)C[C@H](C)/C=C/C=C/C=C/1C [temsirolimus, Temsirolimus]
inhibition of tumor growth [1]: 70% | S6 ribosomal protein phosphorylation in vivo [2]: effectively blocked S6 ribosomal protein phosphorylation | target protein phosphorylation in vivo [3]: strongly inhibited target protein phosphorylation | relative growth (RTG) ([4]; all tumors except A194, temsirolimus 20 mg/kg days 1-5 i.p., day 28): less than 50% | tumor response ([4]; tumor A194): resistant (greater than 50% RTG and were defined as resistant) | tumor response ([4]; tumor A198): sensitive (Tumor response was defined as sensitive, when RTG was less than 50% on day 28)
